In one data set the test system is gastric ulcer. The experiment in a line: anti-ulcer test against indomethacin-induced gastric ulcer. The data set is classed as in vivo, Wistar/ST male rats. The note with it: for Length of ulcer: 30 minutes before indomethacin (50 mg/kg s.c.), control 47.75 ± 6.08; for Suppression rate: indomethacin ulcer, vs. control. The method, then:
Ulcer was induced in Wistar/ST male rats having a weight of about 200 g (6 week-old) by indomethacin as a gastric ulcer inducing agent, and the anti-ulcer effects of the test samples were examined in the following six groups to which test samples were administered.
Each group comprises six rats.
______________________________________
Group 1: (control) physiological saline
Group 2: (comparative) cetraxate hydrochloride
Group 3: (the present invention) garcinol
Group 4: (the present invention) garcinol
Group 5: (the present invention) garcinol
Group 6: (the present invention) isogarcinol
In this connection, physiological saline containing 1% sodium carboxymethylcellulose was used as the control, and cetraxate hydrochloride (trade name "Neuer®S", Daiichi Pharmaceuticals Co., Ltd.) which is clinically used as an anti-ulcer agent was used as the comparative sample. The cetraxate hydrochloride insoluble in water was ground into fine powder with a mortar and a pestle and used as a suspension in a 1% sodium carboxymethylcellulose solution. Also, garcinol and isogarcinol in the form of fine powder were used as the suspensions in a 1% sodium carboxymethylcellulose solution in the concentrations which are the doses in the groups. In this connection, garcinol and isogarcinol used in the section of the present invention were those obtained in Referential Examples 1 and 2, respectively.
Experiment was carried out according to the method described by Yamahara et al. (see […] ZASSHI, 114, 401, 1994) which had been slightly modified. That is to say, indomethacin (50 mg/kg) was suspended in 1% sodium carboxymethylcellulose containing 0.1% Tween 20 (Sigma) and injected subcutaneously into the back of 24 hour fasted rats in an amount of 1 ml/rat. The samples in the six sections were orally administered at 30 minutes before administration of indomethacin. After 7 hours from the administration of indomethacin, rats were bleeded to death under anesthetization with nembutal, and stomach was isolated. A phosphate buffer (10 ml) containing 10% formalin was injected into the stomach, which was cut open after 10 minutes, and the length of lesion caused in the glandular stomach portion was defined as the lesion index, which was measured in the mm unit to evaluate the anti-ulcer effect. The suppression rate (%) in Table 1 means the value in which the difference of the length (mm) of ulcer in each group subtracted from the average length, 47.75 (mm) of ulcer in the control was divided with the average length, 47.75 (mm) of ulcer in the control. The larger the value, the stronger the anti-ulcer activity.

Data set [1] can be described thus: survival rate of the cells in the EBV-EA induction inhibiting test. The class given is cell-based. To be noted: human, raji cells, 8 μg/ml. The method, then: The EBV potentially infected human lymphoblasts (Raji) were first prepared in a concentration of 5×10^5 cell/ml, and cultured in an RPMI-1640 medium to which 3 mM n-butyric acid (inducer) and 50 nM TPA (12-O-tetradecanoylphorbol-13-acetate) (promoter) were added in an atmosphere of 5% carbon dioxide and 95% air under at a temperature of 37° C. for 48 hours. The cells in which EBV-EA had been induced were detected microscopically by indirect immunofluorescence with the serum of a nasopharyngeal carcinoma (NPC) patient. In this system, various concentrations (8 μg/ml, 40 μg/ml, and 200 μg/ml) of the test substance (garcinol sample shown in Referential Example 1) dissolved in DMSO (dimethylsolfoxide) were added together with the promoter to the cells. The activity of suppressing the induction of the Epstein-Barr virus early antigen was defined as the decreasing rate of the cells in which EBV-EA had been induced.

The next data set deals with mice. Details: species or system ICR/crj male mice. The note with it: mouse, in vivo. The method, then: ICR/crj male mice (5 week-old) having a weight of 29-32 g, each group comprising 5 animals.
Toxicity test by single administration was carried out in accordance with Guidelines of the Toxicity Test Method for Pharmaceuticals (Nichi-Yaku-Shin No. 118, released on Feb. 15, 1984, Notice of Second Section Manager of Examination of Pharmaceutical Affairs Bureau in Ministry of Health and Welfare to the Managers of Hygiene Division of Prefectures).
Garcinol was suspended into a physiological saline in a concentration of 30 mg/ml, and the suspension was administered orally to mice at a dose of 0.5 ml per 30 g of body weight (500 mg/kg of body weight) for observation for 14 days.

The nature of data set [2]: DPPH radical scavenging activity. The method, then:
The 1,1-diphenyl-2-picrylhydrazyl (DPPH) radical scavenging activity was tested with a garcinol preparation prepared in the similar manner as described in Referential Example 1. That is to say, a 1.0×10^-4 M solution (50% ethanolic) of DPPH was prepared, 0.0002% of a test substance was added, and the decrease of optical density at 528 nm was measured after 1 hour reaction at 25° C. for one hour. In this case, ascorbic acid was used as a standard, the decrease of the absorbance was expressed as 100, and the radical scavenging activity of the test substance was measured as equivalences to ascorbic acid. In this connection, a garcinol preparaion used as the test substance, and vitamin E and (+)-catechin were used as references.
In general terms: The DPPH test is a chemical assay of radical scavenging.

A further data set deals with bovine serum albumin. The experiment in a line: suppression of generation of reactive oxygen species in the presence of metal ion (oxidation of bovine serum albumin in Fenton reaction). The note with it: 1 mM test substance, 10 μM copper ion, 20 mM hydrogen peroxide, 4 mg/ml BSA. The class given is biochemical. The method, then: The activity for suppressing the generation of reactive oxygen species in the presence of metal ion was evaluated by measuring the effect for suppressing the oxidation of bovine serum albumin by hydroxyl radical in the Fenton reaction system. That is to say, hydroxyl radical was first produced by divalent copper ion and hydrogen peroxide (Fenton reaction). Bovine serum albumin was oxidized by the hydroxyl radical, and thus carbonyl was produced. The carbonyl was reacted with 2,4-dinitrophenylhydrazine, and determined by measuring the absorbance at 365 nm. […] The ratio of decreases of absorbance was expressed as the activity for suppressing the generation of reactive oxygen species in the presence of metal ion.

Some results are limits rather than exact numbers.

With `C=C(C)[C@@H](CC=C(C)C)C[C@@]12C[C@@H](CC=C(C)C)C(C)(C)[C@@](CC=C(C)C)(C(=O)C(C(=O)c3ccc(O)c(O)c3)=C1O)C2=O` [garcinol], the Length of ulcer is reported as 5.75 ± 6.13 mm with gastric ulcer (50 mg/kg oral), 4.00 ± 4.32 mm with gastric ulcer (100 mg/kg oral) and 3.00 ± 5.35 mm with gastric ulcer (200 mg/kg oral). Moreover, the Suppression rate is on record as 88.0% in the data set with gastric ulcer (50 mg/kg oral), 91.6% with gastric ulcer (100 mg/kg oral) and 93.7% in the data set on gastric ulcer (200 mg/kg oral). Also, the viability – broadly, the share of living cells, or the viability signal relative to a control – at 48 h in data set [1] is not below 80%. Further, the “microscopic disorders in tissues or organs (autopsy)” value with mice is “no microscopic disorders in tissues or organs were observed”. In data set [2] (0.0002% test substance, 1.0×10^-4 M DPPH, 25° C., 1 hour, 528 nm), the “DPPH radical scavenging activity (equivalences to ascorbic acid = 100)” value is 85. The “radical scavenging activity per unit weight relative to vitamin E” value in data set [2] (per unit weight of vitamin E) is “about three times”. The “ratio for suppressing the oxidation of bovine serum albumin” value with bovine serum albumin came out at 55%.

The values are drawn from patent US5972357A, “Healthy foods and cosmetics” (Kikkoman Corporation, priority 1996, dated 1999).
